Among the test systems are A549 NSCLC; HL-60(TB) leukemia; HT29 colon; NCI-H226 lung; NCI-H460 lung; OVCAR-8 ovarian; RPMI-8226 leukemia; SF-539 CNS; SK-MEL-28 melanoma; UACC-62 melanoma.
Assay in all cases: growth of human tumour cells (NCI), 48 h

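How tested: cells in 96-well plates exposed to compound for 48 hours at five concentrations. Abbreviation: GI50, concentration required for 50% inhibition of growth. TGI: concentration producing complete growth inhibition.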

Turning to `CCC(c1ccc(OC)cc1)C(CC)c1ccc(O)c(CN2CCN(C)CC2)c1` (stereo not given), the GI50 with A549 NSCLC is 8.26 µM; with HL-60(TB) leukemia, 2.62 µM; with HT29 colon, 2.01 µM; with NCI-H226 lung it was 12.4 µM; in the assay on NCI-H460 lung, 3.04 µM; with OVCAR-8 ovarian it was 6.35 µM. For the same compound, the GI50 with RPMI-8226 leukemia was 2.92 µM; in the assay with SF-539 CNS it was 2.66 µM; in the assay on SK-MEL-28 melanoma, 2.16 µM; in the assay on UACC-62 melanoma, 1.99 µM. For the same compound, the TGI with A549 NSCLC was determined as 22.8 µM; in the assay on HL-60(TB) leukemia, 5.9 µM; in the assay on HT29 colon, 9.06 µM; with NCI-H226 lung, 30.8 µM; in the assay on NCI-H460 lung, 8.2 µM; in the assay on OVCAR-8 ovarian it was 21.8 µM. The TGI with RPMI-8226 leukemia is 9.5 µM; in the assay with SF-539 CNS, 7.98 µM; in the assay on SK-MEL-28 melanoma, 4.23 µM; in the assay with UACC-62 melanoma, 4.16 µM.
`CC(=O)NC1C(OCc2ccccc2)OC(CO)C(O)C1OC(C)C(=O)N[C@@H](C)C(=O)N[C@H](CCC(=O)OCCNc1c2ccccc2nc2cccc([N+](=O)[O-])c12)C(N)=O` (stereo not given in full): the TGI with A549 NSCLC stood at 0.0173 µM; in the assay with HL-60(TB) leukemia it was 0.0564 µM; with HT29 colon it was 0.00443 µM; in the assay with NCI-H226 lung, 0.0217 µM; with NCI-H460 lung, 0.00137 µM; with OVCAR-8 ovarian it was 0.028 µM. The TGI is > 0.1 µM with RPMI-8226 leukemia, 0.0161 µM in the assay with SF-539 CNS, 0.0118 µM in the assay with SK-MEL-28 melanoma and 0.00203 µM in the assay on UACC-62 melanoma.
As for `CC(C)(C)c1ccc(OC(=O)Nc2ccc(O)c(C(=O)O)c2)cc1`, the TGI with A549 NSCLC, in the assay with HL-60(TB) leukemia, in the assay on HT29 colon, with NCI-H226 lung, in the assay with NCI-H460 lung and in the assay on OVCAR-8 ovarian was > 100 µM in each case. Also, the TGI in the assay with RPMI-8226 leukemia, in the assay on SF-539 CNS, with SK-MEL-28 melanoma and in the assay with UACC-62 melanoma was > 100 µM in each case.
`NC(=O)c1c([N+](=O)[O-])cc(C(F)(F)F)cc1[N+](=O)[O-]`: the TGI with A549 NSCLC was > 100 µM; with HL-60(TB) leukemia, 47.4 µM; in the assay on HT29 colon, > 100 µM; with NCI-H226 lung, > 100 µM; in the assay with NCI-H460 lung, > 100 µM; in the assay with OVCAR-8 ovarian, > 100 µM. For the same compound, the TGI in the assay with RPMI-8226 leukemia, in the assay with SF-539 CNS, with SK-MEL-28 melanoma and in the assay on UACC-62 melanoma was > 100 µM in each case.
Regarding `Cc1ccc(NC(=O)C2C(=O)N(c3ccc(C)c(C)c3)C(=O)/C2=N\NC(N)=O)cc1C` (stereo not given), the TGI in the assay on A549 NSCLC, in the assay on HL-60(TB) leukemia, with HT29 colon, with NCI-H226 lung, in the assay on NCI-H460 lung and in the assay with OVCAR-8 ovarian was > 100 µM throughout. The TGI in the assay on RPMI-8226 leukemia, in the assay with SF-539 CNS, in the assay on SK-MEL-28 melanoma and in the assay with UACC-62 melanoma was > 100 µM each time.
With `Cn1nc(-c2ccc(Cl)cc2)nc2c(=O)n(C)c(=O)nc1-2`, the GI50 in the assay with A549 NSCLC was 0.768 µM; in the assay with HL-60(TB) leukemia it was 1.11 µM; in the assay with HT29 colon, 1.11 µM; with NCI-H226 lung it was 2.38 µM; in the assay with NCI-H460 lung, 1.21 µM; in the assay with OVCAR-8 ovarian it was 0.976 µM. Further, the GI50 in the assay on RPMI-8226 leukemia is 0.886 µM; in the assay with SF-539 CNS, 1.08 µM; in the assay with SK-MEL-28 melanoma, 1.24 µM; with UACC-62 melanoma it was 0.745 µM. Besides, the TGI in the assay on A549 NSCLC amounted to 1.73 µM; with HL-60(TB) leukemia, 3.69 µM; in the assay on HT29 colon it was 11.3 µM; in the assay on NCI-H226 lung, 5.83 µM; in the assay on NCI-H460 lung, 4.94 µM; with OVCAR-8 ovarian it was 3.51 µM. The TGI in the assay with RPMI-8226 leukemia is 2.23 µM; in the assay on SF-539 CNS, 2.29 µM; in the assay with SK-MEL-28 melanoma, 3.13 µM; in the assay with UACC-62 melanoma, 1.68 µM.
For `O=C(O)c1cn(C2CC2)c2cc(N3CCN(C(=O)Nc4nc(-c5ccccc5)cs4)CC3)c(F)cc2c1=O`, the GI50 in the assay with A549 NSCLC is 2.15 µM; with HL-60(TB) leukemia it was 1.62 µM; in the assay on HT29 colon, 0.636 µM; with NCI-H226 lung it was 2.96 µM; in the assay on NCI-H460 lung, 0.445 µM; in the assay on OVCAR-8 ovarian it was 1.45 µM. The GI50 with RPMI-8226 leukemia is 0.826 µM; in the assay on SF-539 CNS, 0.634 µM; with SK-MEL-28 melanoma, 0.705 µM; with UACC-62 melanoma, 0.67 µM. Besides, the TGI with A549 NSCLC was > 100 µM; in the assay with HL-60(TB) leukemia, 4.41 µM; with HT29 colon it was 4.67 µM; in the assay on NCI-H226 lung, 57.5 µM; in the assay with NCI-H460 lung it was > 100 µM; in the assay with OVCAR-8 ovarian, 49.2 µM. In addition, the TGI with RPMI-8226 leukemia was 7.41 µM; in the assay on SF-539 CNS it was > 100 µM; with SK-MEL-28 melanoma it was > 100 µM; in the assay with UACC-62 melanoma, 8.52 µM.

The record behind these values is PubChem BioAssay (NCI).
